Measured values taken from article PMC7486940, “Pre-symptomatic Caspase-1 inhibitor delays cognitive decline in a mouse model of Alzheimer disease and aging” (Nature Communications, 2020).
Values joined by “and” are separate entries in the source; they are usually repeats but may differ in a detail not shown here. Equal entries are not always repeated. Where two headings read alike, the source gives them in different places. Marks after values point to notes of the source that are not given here.

Experiments:
[1] = system: Casp1; parameters: method as in PMID 30254377; conditions: in vitro Casp1; cited from earlier work
[2] = cited from earlier work
[3] = parameters: method as in PMID 30254377; conditions: 50 mg/kg dose of VX-765, carotid infusion, J20 mice; cited from earlier work
[4] = VX-765 and VRT-043198 pharmacokinetics (LC-MS/MS) in plasma, whole brain and CSF after a single IP dose of VX-765
Protocol: Plasma, whole brain and CSF concentrations of VX-765 and its active metabolite, VRT-043198, were determined by LC-MS/MS at Paraza Pharma (Montreal, QC, Canada). Fourteen C57BL/6J female mice received a single IP dose of 50 mg · kg^−1 VX-765 and 2 mice per time point were euthanized at 0.25, 0.5, 1, 3, 6, 8 and 24 h post-injection. Mice were isoflurane anesthetized to collect CSF and perform a cardiac puncture followed by whole body perfusion with PBS. Plasma samples were extracted 1:1 in spiking solution and internal standard solution containing 0.1 μM glyburide in acetonitrile. Brain and CSF samples were extracted 1:1 in spiking solution and internal standard solution containing 0.2 μM labetalol in 50:50 methanol:acetonitrile. Samples were centrifuged at 4000 × g for 10 min at 4 °C, the plasma supernatant diluted 1:1 and the brain and CSF supernatant diluted 1:2 in H2O, and 5 μl was injected into a Quantis LC-MS/MS system for analysis.

[5] = system: APP23 mice; parameters: method as in PMID 16095884; conditions: 2-month pre-symptomatic treatment, 3-week WO; cited from earlier work
[6] = system: APP/PS1 mouse model of AD; parameters: method as in Woodling et al., Brain 2016; conditions: three month treatment given one month before the appearance of deficits, ref Woodling et al., Brain 2016; cited from earlier work
[7] = system: APP/PS1; parameters: method as in PMID 29191754; conditions: 1-month pre-treatment, 3-week WO; cited from earlier work
[8] = CSF, 0.50 h after single IP 50 mg/kg VX-765
[9] = CSF, 1 h after single IP 50 mg/kg VX-765
[10] = CSF, 3 h after single IP 50 mg/kg VX-765, some blood contamination during CSF collection
[11] = CSF, 8 h after single IP 50 mg/kg VX-765, some blood contamination during CSF collection
[12] = plasma, 0.25 h after single IP 50 mg/kg VX-765
[13] = plasma, 0.50 h after single IP 50 mg/kg VX-765
[14] = plasma, 1 h after single IP 50 mg/kg VX-765
[15] = plasma, 3 h after single IP 50 mg/kg VX-765
[16] = plasma, 6 h after single IP 50 mg/kg VX-765
[17] = plasma, 8 h after single IP 50 mg/kg VX-765
[18] = plasma, single IP 50 mg/kg VX-765
[19] = whole brain, 0.25 h after single IP 50 mg/kg VX-765
[20] = whole brain, 0.50 h after single IP 50 mg/kg VX-765
[21] = whole brain, 1 h after single IP 50 mg/kg VX-765, NQ = not quantifiable, LLOQ 0.025 μM VX-765, 0.049 μM VRT-043198
[22] = whole brain, single IP 50 mg/kg VX-765

CC(C)(C)[C@H](NC(=O)c1ccc(N)c(Cl)c1)C(=O)N1CCC[C@H]1C(=O)N[C@H](C=O)CC(=O)O [VRT-043198]
IC50 [1]: 9.91 nM
in vitro half-life (t1/2) [2]: ~180 min
concentration in the J20 brain [3]: 2000 to 5000 nM
CSF concentration, Mouse 2 ([4]; CSF, 0.25 h after single IP 50 mg/kg VX-765): 3.11 µM
CSF concentration, Mean ([4]; CSF, 0.25 h after single IP 50 mg/kg VX-765, n = 2): 42.9 µM
CSF concentration, Mouse 1 ([4]; CSF, 0.25 h after single IP 50 mg/kg VX-765, some blood contamination during CSF collection): 82.6* μM
CSF concentration, Mouse 1 [4, 8]: 0.44 µM
CSF concentration, Mouse 2 [4, 8]: 7.00 µM
CSF concentration, Mean ([4]; CSF, 0.50 h after single IP 50 mg/kg VX-765, n = 2): 3.72 µM
CSF concentration, Mouse 1 [4, 9]: 0.43 µM
CSF concentration, Mouse 2 [4, 9]: 0.58 µM
CSF concentration, Mean ([4]; CSF, 1 h after single IP 50 mg/kg VX-765, n = 2): 0.50 µM
CSF concentration, Mean ([4]; CSF, 3 h after single IP 50 mg/kg VX-765, n = 2): 0.28 µM
CSF concentration, Mouse 1 [4, 10]: 0.42* μM
CSF concentration, Mouse 2 [4, 10]: 0.15* μM
CSF concentration, Mean ([4]; CSF, 6 h after single IP 50 mg/kg VX-765): 0.21 µM
CSF concentration, Mouse 2 ([4]; CSF, 6 h after single IP 50 mg/kg VX-765, some blood contamination during CSF collection): 0.21* μM
CSF concentration, Mean ([4]; CSF, 8 h after single IP 50 mg/kg VX-765, n = 2): 0.36 µM
CSF concentration, Mouse 1 [4, 11]: 0.13* μM
CSF concentration, Mouse 2 [4, 11]: 0.60* μM
MRTinf in CSF, Mean ([4]; CSF, single IP 50 mg/kg VX-765): 48.6 min
MRTinf in CSF, Mouse 1 ([4]; CSF, single IP 50 mg/kg VX-765): 48.6 min
Tmax in CSF, Mean ([4]; CSF, single IP 50 mg/kg VX-765): 22.8 min
Tmax in CSF, Mouse 1 ([4]; CSF, single IP 50 mg/kg VX-765): 15 min
Tmax in CSF, Mouse 2 ([4]; CSF, single IP 50 mg/kg VX-765): 30 min
CSF concentration relative to respective in vitro Casp1 IC50 ([4]; CSF, within 0.25 h post-injection, single IP 50 mg/kg VX-765): 4000 fold
brain concentration relative to respective in vitro Casp1 IC50 ([4]; brain, within 0.25 h post-injection, single IP 50 mg/kg VX-765): 170 fold
plasma concentration, Mouse 1 [4, 12]: 201800 nM
plasma concentration, Mouse 2 [4, 12]: 180400 nM
plasma concentration, Mean ([4]; plasma, 0.25 h after single IP 50 mg/kg VX-765, n = 2): 191100 nM
plasma concentration, Mouse 1 [4, 13]: 338100 nM
plasma concentration, Mouse 2 [4, 13]: 104100 nM
plasma concentration, Mean ([4]; plasma, 0.50 h after single IP 50 mg/kg VX-765, n = 2): 221100 nM
plasma concentration, Mouse 1 [4, 14]: 24400 nM
plasma concentration, Mouse 2 [4, 14]: 51000 nM
plasma concentration, Mean ([4]; plasma, 1 h after single IP 50 mg/kg VX-765, n = 2): 37700 nM
plasma concentration, Mouse 1 [4, 15]: 1160 nM
plasma concentration, Mouse 2 [4, 15]: 780 nM
plasma concentration, Mean ([4]; plasma, 3 h after single IP 50 mg/kg VX-765, n = 2): 970 nM
plasma concentration, Mouse 1 [4, 16]: 460 nM
plasma concentration, Mouse 2 [4, 16]: 300 nM
plasma concentration, Mean ([4]; plasma, 6 h after single IP 50 mg/kg VX-765, n = 2): 380 nM
plasma concentration, Mouse 1 [4, 17]: 350 nM
plasma concentration, Mouse 2 [4, 17]: 240 nM
plasma concentration, Mean ([4]; plasma, 8 h after single IP 50 mg/kg VX-765, n = 2): 300 nM
MRTinf in plasma, Mouse 1 [4, 18]: 40.2 min
MRTinf in plasma, Mouse 2 [4, 18]: 46.8 min
Tmax in plasma, Mouse 1 [4, 18]: 30 min
Tmax in plasma, Mouse 2 [4, 18]: 15 min
plasma concentration relative to respective in vitro Casp1 IC50 ([4]; plasma, within 0.25 h post-injection, single IP 50 mg/kg VX-765): 20,000 fold
Cmax ([4]; read-out: Cmax in CSF, Mean, CSF, single IP 50 mg/kg VX-765): 44800 nM
Cmax ([4]; read-out: Cmax in CSF, Mouse 1, CSF, single IP 50 mg/kg VX-765): 82600 nM
Cmax ([4]; read-out: Cmax in CSF, Mouse 2, CSF, single IP 50 mg/kg VX-765): 7000 nM
Cmax ([4]; read-out: Cmax in brain, Mean, whole brain, single IP 50 mg/kg VX-765): 1700 nM
Cmax ([4]; read-out: Cmax in brain, Mouse 1, whole brain, single IP 50 mg/kg VX-765): 2540 nM
Cmax ([4]; read-out: Cmax in brain, Mouse 2, whole brain, single IP 50 mg/kg VX-765): 850 nM
Cmax ([4]; read-out: Cmax in plasma, Mean, plasma, single IP 50 mg/kg VX-765): 259000 nM
Cmax ([4]; read-out: Cmax in plasma, Mouse 1, plasma, single IP 50 mg/kg VX-765): 338000 nM
Cmax ([4]; read-out: Cmax in plasma, Mouse 2, plasma, single IP 50 mg/kg VX-765): 180000 nM
brain concentration, Mouse 1 [4, 19]: 2540 nM
brain concentration, Mouse 2 [4, 19]: 850 nM
brain concentration, Mean ([4]; whole brain, 0.25 h after single IP 50 mg/kg VX-765, n = 2): 1700 nM
brain concentration, Mouse 1 [4, 20]: 590 nM
brain concentration, Mouse 2 [4, 20]: 650 nM
brain concentration, Mean ([4]; whole brain, 0.50 h after single IP 50 mg/kg VX-765, n = 2): 620 nM
brain concentration, Mean ([4]; whole brain, 1 h after single IP 50 mg/kg VX-765): 240 nM
brain concentration, Mouse 1 [4, 21]: 210 nM
brain concentration, Mouse 2 [4, 21]: 270 nM
brain concentration, Mean ([4]; whole brain, 3 h after single IP 50 mg/kg VX-765): 80 nM
brain concentration, Mouse 1 ([4]; whole brain, 3 h after single IP 50 mg/kg VX-765, NQ = not quantifiable, LLOQ 0.025 μM VX-765, 0.049 μM VRT-043198): 80 nM
Half-life (t1/2) in brain, Mouse 1 [4, 22]: 59.4 min
MRTinf in brain, Mean [4, 22]: 52.2 min
MRTinf in brain, Mouse 1 [4, 22]: 58.8 min
MRTinf in brain, Mouse 2 [4, 22]: 45.6 min
Tmax in brain, Mean [4, 22]: 15 min
Tmax in brain, Mouse 1 [4, 22]: 15 min
Tmax in brain, Mouse 2 [4, 22]: 15 min
Half-life (t1/2) in brain, Mean ([4]; whole brain, single IP 50 mg/kg VX-765, 50 mg/kg): 60 min and 59.4 min

COc1ccc2c3c1O[C@H]1C[C@@H](O)C=C[C@@]31CCN(C)C2 [galantamine]
Morris water maze acquisition and spatial memory [5]: improved acquisition and spatial memory in the Morris water maze

CC(C)Cc1ccc(C(C)C(=O)O)cc1 (stereo not shown) [ibuprofen]
cognitive impairment on NOR [6]: prevention of cognitive impairment

CC12CC3CC(C)(C1)CC(N)(C3)C2 [memantine]
Morris water maze acquisition and spatial memory [5]: improved acquisition and spatial memory in the Morris water maze

CN1CCN(CCOc2cc(OC3CCOCC3)c3c(Nc4c(Cl)ccc5c4OCO5)ncnc3c2)CC1 [saracatinib]
NOR performance [7]: continued improved performance in NOR
